Legend:
[1] = tested on: activated IL-1β; assay: Mouse P. aeruginosa lung infection model, activated IL-1β in lung homogenates; type: in vivo; details: C57Bl/6 mice, 10 and 30 mg/kg IV at 1 and 4 h post-infection, 24 h; p < 0.0001
Protocol: To investigate if compounds 12 and 16 were able to engage the LasB target in vivo, in the context of a P. aeruginosa lung infection, and to determine the consequences of that inhibition, immunocompetent C57Bl/6 mice were infected intranasally with P. aeruginosa PAO1 and treated with two doses of inhibitors, 10 and 30 mg/kg, administered IV at 1 and 4 h post-infection (Figure 5A). A control group of PAO1-infected animals treated with vehicle and a group of animals infected with the isogenic ΔlasB strain were included in the study. Mice were euthanized 24 h post-infection and their lung homogenates assayed for activated mature IL-1β (using the IL-1 reporter assay) and bacterial numbers (by CFU enumeration).
Infection experiments were approved by the Institutional Animal Care and Use Committee of Emory University. To prepare the bacterial inoculum, P. aeruginosa PAO1 (or its ΔlasB derivative) was grown in Luria broth with shaking at physiologic (37 °C) temperature for 18 h to maximally express LasB (at late log phase). […] Active IL-1β was quantified by adding 100 μL of cell-free homogenate to IL-1β responsive HEK IL-1R-lux reporter cells. Activity was assayed by luminescence measured with D-luciferin substrate (Steady-Luc, Biotium) on a multimode reader (PerkinElmer) and expressed as relative luminescence units (RU). […] Statistics were calculated by ANOVA with a Dunnett post-test.

[2] = target: MMP-9 (Homo sapiens, UniProt P14780); assay: MMP-9 selectivity assay; type: biochemical; details: human MMP-9
Sequence of MMP-9 (P14780 94-707): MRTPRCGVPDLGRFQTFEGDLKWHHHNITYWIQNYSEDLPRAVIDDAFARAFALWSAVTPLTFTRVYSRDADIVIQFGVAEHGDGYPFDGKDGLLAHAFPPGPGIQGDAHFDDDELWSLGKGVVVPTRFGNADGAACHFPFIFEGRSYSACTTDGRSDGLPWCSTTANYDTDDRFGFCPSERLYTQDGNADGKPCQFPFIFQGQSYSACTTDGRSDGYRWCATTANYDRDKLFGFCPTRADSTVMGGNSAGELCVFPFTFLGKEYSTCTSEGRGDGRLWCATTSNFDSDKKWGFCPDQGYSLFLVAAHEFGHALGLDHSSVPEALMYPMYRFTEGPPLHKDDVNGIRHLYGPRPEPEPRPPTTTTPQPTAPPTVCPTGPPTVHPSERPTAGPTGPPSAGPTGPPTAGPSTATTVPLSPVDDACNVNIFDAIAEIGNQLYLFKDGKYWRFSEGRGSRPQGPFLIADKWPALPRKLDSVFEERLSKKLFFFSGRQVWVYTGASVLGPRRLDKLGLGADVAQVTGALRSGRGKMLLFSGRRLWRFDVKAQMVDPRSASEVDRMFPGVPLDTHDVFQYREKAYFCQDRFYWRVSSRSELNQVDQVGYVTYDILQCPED
Protocol: Selectivity of compound inhibition was evaluated against other proteases at concentrations between 0.4 and 200 μM. Activity against rabbit angiotensin-converting enzyme (ACE, Sigma) was assessed using 10 μM fluorogenic substrate Abz-Phe-Arg-Lys(Dnp)-P (Enzo Life Sciences) in 100 mM Tris-HCl pH 7, 50 mM NaCl, 10 μM Zn SO4. Activity against human matrix metalloproteases (MMP)-2 and MMP-9 was assessed in 50 mM HEPES pH 7.5, 10 mM CaCl2, 0.01% Triton X-100 using 4 μM fluorogenic substrate Mca-Pro-Leu-Gly-Leu-Dpa-Ala-Arg-NH2 (Enzo Life Sciences). Activity against MMP-1 and MMP-13 was assessed in 25 mM HEPES pH 7.5, 100 mM NaCl, 100 mM CaCl2, 0.0005% Brij using 7.5 μM fluorogenic substrate Mca-Lys-Pro-Leu-Gly-Leu-Dpa-Ala-Arg-NH2 (Sigma) for MMP-1 and 1.25 μM fluorogenic substrate Mca-Pro-Cha-Gly-Nva-His-Ala-Dpa-NH2 (Millipore) for MMP-13. Activity against human neutrophil elastase (HNE, Enzo Life Sciences) was assessed in 100 mM HEPES pH 7.5, 500 mM NaCl, 0.01% of Triton X-100 using 100 μM fluorogenic substrate MeOSuc-AAPV-AMC (Enzo Life Sciences).

[3] = target: T1, secreted LasB in P. aeruginosa PAO1-infected THP-1 macrophages (Pseudomonas aeruginosa, UniProt P14756); assay: LasB activity (Sub115 hydrolysis) in supernatants of P. aeruginosa-infected THP-1 macrophages; type: cell-based; details: PAO1-infected THP-1 macrophages, 2 h, inhibitor at 4 μM
T1 construct: The mature LasB protein is a 33 kDa metalloprotease, which is secreted from P. aeruginosa; endogenous in cells; host or cells: P. aeruginosa PAO1 infecting human THP-1 macrophages (MOI 10:1); supernatant after 2 h
T1 sequence (P14756 198-498): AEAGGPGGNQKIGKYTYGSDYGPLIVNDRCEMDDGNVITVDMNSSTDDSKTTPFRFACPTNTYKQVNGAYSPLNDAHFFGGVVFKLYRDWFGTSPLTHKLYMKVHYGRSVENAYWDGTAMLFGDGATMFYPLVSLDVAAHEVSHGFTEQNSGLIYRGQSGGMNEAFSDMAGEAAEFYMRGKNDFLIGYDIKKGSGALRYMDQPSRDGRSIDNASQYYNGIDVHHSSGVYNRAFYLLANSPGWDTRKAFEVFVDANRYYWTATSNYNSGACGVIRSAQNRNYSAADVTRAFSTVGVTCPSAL
Protocol: Further to showing in vitro inhibition of LasB-mediated pro-IL-1β proteolysis, experiments were performed to determine the effect of compounds 12 and 16 on IL-1β activation and functionality in human macrophage cell cultures infected with P. aeruginosa PAO1, or an isogenic lasB deletion mutant thereof (ΔlasB). In these experiments, the levels of LasB activity in culture supernatants were measured via hydrolysis of the Sub115 fluorescent peptide, while the effect of LasB activity on IL-1β activation (functionality) was measured using a luciferase reporter cell line sensitive to IL-1β induction (Figure 3).
Human THP-1 macrophages were cultured by conventional methods then, pre-infection, culture media were replaced by RPMI lacking phenol red and antibiotics. Compounds VX-765 (caspase-1 inhibitor, developed by Vertex) and/or LasB inhibitors were added, immediately followed by inoculation with P. aeruginosa PAO1 or an isogenic lasB deletion mutant (ΔlasB), previously grown in Luria broth to late exponential phase (OD600 = 1.2) then washed and diluted in PBS, at a multiplicity of infection (MOI) of 10 to 1. After 2 h post-infection, 50 μL aliquots of supernatant were removed and used to quantitate both LasB activity and IL-1β functionality. To determine LasB activity, 50 μL of supernatant was added to Sub115 IL-1β peptide and hydrolysis of Sub115 was monitored spectrophotometrically with excitation at 355 nm and emission at 450 nm, as described above. Results were expressed as relative fluorescence units (RFU).
In the first variation, experimental infections were performed with P. aeruginosa PAO1 and ΔlasB bacteria incubated with varying quantities of inhibitor at final concentrations ranging from 0.5 to 8 μM. In the second, cells were treated and infected in the same manner and also treated with 5 μM VX-765 to provide a control for IL-1β activation by the inflammasome pathway.

[4] = target: T2, purified LasB (Pseudomonas aeruginosa, UniProt P14756); assay: Inhibition of LasB-mediated proteolysis of human serum IgG (SDS-PAGE); type: biochemical, P. aeruginosa; details: for inhibition of generation of 37 kDa IgG degradation product by LasB: at 10 μM inhibitor
T2 construct: The mature LasB protein is a 33 kDa metalloprotease, which is secreted from P. aeruginosa; host or cells: P. aeruginosa PAO1 (native secretion, culture supernatant)
T2 sequence (P14756 198-498): as above
Protocol: To confirm if compounds 12 and 16 were able to inhibit this activity, human serum IgG was incubated with purified LasB in the presence of varying concentrations of inhibitors and the products analyzed by SDS-PAGE.
This protocol was adapted from Cathcart et al.[25] Briefly, 10 μg of IgG from human serum (Sigma) were incubated with 100 ng purified LasB in assay buffer (50 mM Tris-HCl pH 7.4, 2.5 mM CaCl2) for 4 h at 37 °C, with or without variable concentrations of inhibitor. Samples were then denatured and analyzed by 4–15% gradient SDS polyacrylamide gel electrophoresis (SDS-PAGE) and the gel stained using Coomassie blue. The IgG subunits are visualized as two bands at 28 kDa (light chain) and 54 kDa (heavy chain). Proteolysis by LasB results in the generation of a fragment of the heavy chain detected of approximately 37 kDa. Bands were quantified using ImageJ software, and IC50 values were determined using Prism software (GraphPad).

| Structure (SMILES) | decrease in activated IL-1β in lung homogenates vs PAO1-infected control group [1] | IC50 [2] [µM] | LasB activity in culture supernatant (Sub115 hydrolysis) [3] | IC50 [4] [µM] | inhibition of generation of 37 kDa IgG degradation product by LasB [4] |
| --- | --- | --- | --- | --- | --- |
| COc1cc2sc(CNC(=O)C3(CC(=O)O)Cc4ccccc4C3)nc2cc1OCCC[N+](C)(C)C [Compound 12] | up to 4 fold | > 200 | complete abolition of activity | 2.59 | complete inhibition |
| COc1cc2sc(CNC(=O)C3(CC(=O)O)Cc4cc(F)c(F)cc4C3)nc2cc1OCCC[N+](C)(CCO)CCO [Compound 16] | up to 4 fold | > 200 | complete abolition of activity | 1.29 | complete inhibition |

Reference: PMC9926489, “Chemical Optimization of Selective Pseudomonas aeruginosa LasB Elastase Inhibitors and Their Impact on LasB-Mediated Activation of IL-1β in Cellular and Animal Infection Models” (ACS Infectious Diseases, 2023)
